Entries after “also recorded” stand apart in the source; their conditions may differ.
Legend:
A549 cells = assay: Cell binding assay of TAMRA-conjugated octreotide variants on A549 cells (flow cytometry); design: species or system human; settings: neat TAMRA versus fluorescence marked octreotide 1, Fig. S-23
Procedure: (§1) In order to check whether the modifications on the octreotide have an influence on its interaction with somatostatin receptors in living cells, a binding study on different human cell lines was performed. For the detection of the bound peptides, octreotide and the derivatives were further modified by attaching the fluorophore TAMRA to the N terminus. To prevent the fluorophore from interacting with the binding site of octreotide derivatives, a 4,7,10-trioxa-1,13-tridecanediamine succinate (TTDS) spacer was added between the peptide N terminus and the N-hydroxy succinimide (NHS)-activated fluorophore. Both, the linker and the fluorophore, were attached to the peptides by manual SPPS (Fig. 5).
(§2) Human lung cancer cells A549 and human embryonic kidney cells HEK293 were utilized for the binding studies. A549 are widely used in binding studies with somatostatin analogues[61],[62]. […]
(§3) A549 cells (DSMZ ACC 107) and HEK293 cell s (DSMZ ACC 308) were cultured in complete growth medium consisting of Dulbecco’s MEM with 10 % fetal bovine serum (FBS) and 1x penicillin/streptomycin. […] After incubation, the cells were washed three times with ice -cold PBS-F. Using a CytoFlexS flow cytometer, PE -fluorescence was measured. […]

HEK293 cells = assay: Cell binding assay of TAMRA-conjugated octreotide variants on HEK293 cells (flow cytometry); design: species or system human; settings: neat TAMRA versus fluorescence marked octreotide 1, Fig. S-24
Procedure: as §1, §2, §3

Question: For TAMRA, which “Binding efficiency (fluorescence) of TAMRA alone compared to TAMRA-linker-octreotide” value (A549 cells) is on record?
Answer: Its value is “about half the fluorescence; also recorded: about two times reduced binding efficiency”.

Question: What about the “Binding efficiency (fluorescence) of TAMRA alone compared to TAMRA-linker-octreotide” value (HEK293 cells) of the same substance?
Answer: The value was “about half the fluorescence; also recorded: about two times reduced binding efficiency”.
